Measured values taken from ChEMBL document CHEMBL4342436, “Artemisia: a promising plant for the treatment of cancer” (Bioorg Med Chem, 2020).
Values after ≈ are worked out from the molar mass of the structure shown.

How the values were obtained:
A-431 = assay: Cytotoxicity against human A431 cells after 72 hrs by MTT assay; format: functional, cell-based; settings: A-431, 72 h
MCF7 [1] = assay: Cytotoxicity against human MCF7 cells after 72 hrs by MTT assay; format: functional, cell-based; settings: MCF7, 72 h
HeLa [2] = assay: Cytotoxicity against human HeLa cells after 72 hrs by MTT assay; format: functional, cell-based
A2780 = assay: Cytotoxicity against human A2780 cells after 72 hrs by MTT assay; format: functional, cell-based; settings: A2780, 72 h
KB = assay: Cytotoxicity against human KB cells; format: functional; settings: read-out: ED50 (the source's name)
HT-29 [3] = assay: Cytotoxicity against human HT-29 cells; format: functional; settings: read-out: ED50 (the source's name)
P388 [4] = assay: Cytotoxicity against mouse P388 cells; format: functional; settings: read-out: ED50 (the source's name)
MCF7 [5] = assay: Cytotoxicity against human MCF7 cells; format: functional; settings: read-out: ED50 (the source's name)
SK-MEL-2 = assay: Cytotoxicity against human SK-MEL-2 cells by SRB assay; format: functional, cell-based
XF498 = assay: Cytotoxicity against human XF498 cells by SRB assay; format: functional, cell-based
SK-OV-3 = assay: Cytotoxicity against human SKOV3 cells by SRB assay; format: functional, cell-based
A549 [6] = assay: Cytotoxicity against human A549 cells by SRB assay; format: functional, cell-based
HCT-15 = assay: Cytotoxicity against human HCT15 cells by SRB assay; format: functional, cell-based
[7] = Antioxidant activity assessed as ONOO scavenging activity; format: functional
MIA PaCa-2 = assay: Antiproliferative activity against human MIAPaCa2 cells assessed as reduction in cell viability after 48 hrs by MTT assay; format: functional, cell-based; settings: MIA PaCa-2, 48 h
A549 [8] = assay: Antiproliferative activity against human A549 cells assessed as reduction in cell viability after 48 hrs by MTT assay; format: functional, cell-based; settings: A549, 48 h
MCF7 [9] = assay: Antiproliferative activity against human MCF7 cells assessed as reduction in cell viability after 48 hrs by MTT assay; format: functional, cell-based; settings: MCF7, 48 h
COLO 205 = assay: Antiproliferative activity against human COLO205 cells assessed as reduction in cell viability after 48 hrs by MTT assay; format: functional, cell-based; settings: COLO 205, 48 h
BHY = assay: Antiproliferative activity against human BHY cells assessed as reduction in cell viability after 48 hrs by MTT assay; format: functional, cell-based
PANC-1 [10] = assay: Antitumour activity against human PANC1 cells xenografted in ip dosed nude BALB/c mouse assessed as tumor weight for 18 days; format: functional
CFPAC-1 [11] = assay: Cytotoxicity against human CFPAC-1 cells assessed as cell viability after 24 hrs by MTT assay relative to control; format: functional
PANC-1 [12] = assay: Cytotoxicity against human PANC1 cells assessed as cell viability after 24 hrs by MTT assay relative to control; format: functional
CFPAC-1 [13] = assay: Antitumour activity against human CFPAC-1 cells xenografted in ip dosed nude BALB/c mouse assessed as tumor weight for 18 days; format: functional
HeLa [14] = assay: Cytotoxicity against human HeLa cells; format: functional, cell-based
MCF7 [15] = assay: Cytotoxicity against human MCF7 cells assessed as reduction in cell viability incubated for 48 hrs by MTT assay; format: functional, cell-based; settings: MCF7, 48 h
HeLa [16] = assay: Cytotoxicity against human HeLa cells assessed as reduction in cell viability incubated for 48 hrs by MTT assay; format: functional, cell-based
HeLa [17] = assay: Cytotoxicity against human HeLa cells assessed as reduction in cell viability after 24 hrs by MTT assay; format: functional, cell-based
HeLa [18] = assay: Cytotoxicity against human HeLa cells after 48 hrs by MTT assay; format: functional, cell-based
U-937 = assay: Cytotoxicity against human U937 cells after 48 hrs by MTT assay; format: functional, cell-based; settings: U-937, 48 h
A549 [19] = assay: Cytotoxicity against human A549 cells after 48 hrs by MTT assay; format: functional, cell-based; settings: A549, 48 h
SW-620 = assay: Antitumour activity against human SW620 cells xenografted in mouse assessed as inhibition of tumour growth at 60 mg/kg relative to control; format: functional; settings: read-out: TGI
[20] = Cytotoxicity against mouse S17 cells after 72 hrs by MTT assay; format: functional, cell-based; settings: S17, 72 h
HepG2 = assay: Cytotoxicity against human HepG2 cells after 72 hrs by MTT assay; format: functional, cell-based; settings: HepG2, 72 h
SH-SY5Y = assay: Cytotoxicity against human SH-SY5Y cells after 72 hrs by MTT assay; format: functional, cell-based
HT-29 [21] = assay: Cytotoxicity against human HT-29 cells assessed as reduction in cell viability after 48 hrs by MTT assay; format: functional, cell-based; settings: HT-29, 48 h
A549 [22] = assay: Cytotoxicity against human A549 cells assessed as reduction in cell viability after 48 hrs by MTT assay; format: functional, cell-based; settings: A549, 48 h
L1210 = assay: Cytotoxicity against mouse L1210 cells assessed as reduction in cell viability after 48 hrs by MTT assay; format: functional, cell-based; settings: L1210, 48 h
P388 [23] = assay: Cytotoxicity against mouse P388 cells assessed as reduction in cell viability after 48 hrs by MTT assay; format: functional, cell-based; settings: P388, 48 h
[24] = Cytotoxicity against human YD-10B cells assessed as reduction in cell viability after 48 hr by MTT asssay; format: functional, cell-based

In the case of `C=C1C(=O)O[C@H](C2=C(C)[C@@H](OC)CC2=O)[C@H]1CCC(C)=O`, the IC50 (A-431) is reported as 33 to 75 µg/mL (≈ 113 to 257 µM), the IC50 (MCF7 [1]) is reported as 33 to 75 µg/mL (≈ 113 to 257 µM) and the IC50 (HeLa [2]) is reported as 33 to 75 µg/mL (≈ 113 to 257 µM). The IC50 (A2780) was 33 to 75 µg/mL (≈ 113 to 257 µM).

Molecule `COc1ccc(-c2oc3cc(OC)c(OC)c(O)c3c(=O)c2O)cc1OC` has an EC50 (KB) of 1.25 to 9.62 µg/mL (≈ 3.34 to 25.7 µM), an EC50 (HT-29 [3]) of 1.25 to 9.62 µg/mL (≈ 3.34 to 25.7 µM) and an EC50 (P388 [4]) of 1.25 to 9.62 µg/mL (≈ 3.34 to 25.7 µM). It also gave an EC50 (MCF7 [5]) of 1.25 to 9.62 µg/mL (≈ 3.34 to 25.7 µM).

Work on `C=C1C(=O)O[C@@H]2C[C@@]3(C)C=CC(=O)C(C)=C3C[C@H]12` yielded an IC50 (SK-MEL-2) of 0.4 to 26.8 µg/mL (≈ 1.64 to 110 µM), an IC50 (XF498) of 0.4 to 26.8 µg/mL (≈ 1.64 to 110 µM) and an IC50 (SK-OV-3) of 0.4 to 26.8 µg/mL (≈ 1.64 to 110 µM). The IC50 (A549 [6]) was 0.4 to 26.8 µg/mL (≈ 1.64 to 110 µM) and the IC50 (HCT-15) was 0.4 to 26.8 µg/mL (≈ 1.64 to 110 µM).

With `COc1cc2ccc(=O)oc2cc1O` [SCOPOLETIN] the IC50 [7] was 1.03 µM.

Molecule `C=C(C)[C@@H]1CC[C@]2(C)CC[C@]3(C)[C@H](CC[C@@H]4[C@@]5(C)CC[C@H](O)C(C)(C)[C@@H]5CC[C@]43C)[C@@H]12` [LUPEOL] has an IC50 (MIA PaCa-2) of 25.2 to 88.1 µM, an IC50 (A549 [8]) of 25.2 to 88.1 µM and an IC50 (MCF7 [9]) of 25.2 to 88.1 µM. It also gave an IC50 (COLO 205) of 25.2 to 88.1 µM and an IC50 (BHY) of 25.2 to 88.1 µM.

With `CC(C)[C@]12O[C@H]1[C@@H]1O[C@]13[C@]1(O[C@H]1C[C@H]1C4=C(CC[C@@]13C)C(=O)OC4)[C@@H]2O` [TRIPTOLIDE] the Activity (PANC-1 [10]) was under 0.4 g, the Activity (CFPAC-1 [11]) was under 10% and the Activity (PANC-1 [12]) was under 10%. For the same molecule, the Activity (CFPAC-1 [13]) was under 0.4 g.

`O=c1cc(-c2ccc(O)cc2)oc2cc(O)cc(O)c12` [APIGENIN] showed an IC50 (HeLa [14]) of 6.09 µM.

Work on `COc1cc(O)c2c(=O)cc(-c3ccc(O)cc3)oc2c1` [GENKWANIN] yielded an IC50 [7] of 1.01 µM, an IC50 (MCF7 [15]) of 10.3 to 91.9 µM and an IC50 (SK-MEL-2) of 0.4 to 26.8 µg/mL (≈ 1.41 to 94.3 µM). The IC50 (XF498) was 0.4 to 26.8 µg/mL (≈ 1.41 to 94.3 µM), the IC50 (HeLa [16]) was 8.1 to 63.2 µM and the IC50 (SK-OV-3) was 0.4 to 26.8 µg/mL (≈ 1.41 to 94.3 µM). The IC50 (A549 [6]) was 0.4 to 26.8 µg/mL (≈ 1.41 to 94.3 µM) and the IC50 (HCT-15) was 0.4 to 26.8 µg/mL (≈ 1.41 to 94.3 µM).

`C=C1C(=O)O[C@@H]2C[C@@]3(C)CCCC(=C)[C@@H]3C[C@H]12` [ISOALANTOLACTONE] showed an IC50 (HeLa [17]) of 8.15 µM.

`C=C1C(=O)O[C@H]2[C@H]1[C@@H](OC(=O)C(C)C)CC(C)=C1C[C@@H]3O[C@]3(C)[C@@H]12` gave an IC50 (HeLa [18]) of 16 to 43.5 µg/mL (≈ 48.1 to 131 µM), an IC50 (U-937) of 16 to 43.5 µg/mL (≈ 48.1 to 131 µM) and an IC50 (A549 [19]) of 16 to 43.5 µg/mL (≈ 48.1 to 131 µM).

In the case of `COc1cc(-c2cc(=O)c3c(O)c(O)c(OC)cc3o2)ccc1O`, the inhibition in vivo at 60 mg/kg (SW-620) is reported as 14.6%.

Work on `COc1ccc(-c2oc3cc(OC)c(OC)c(O)c3c(=O)c2OC)cc1OC` [ARTEMETIN] yielded an IC50 [20] of 229 to 233 µM, an IC50 (HepG2) of 229 to 233 µM and an IC50 (SH-SY5Y) of 229 to 233 µM.

With `COc1ccc(-c2cc(=O)c3c(O)cc(O)cc3o2)cc1` [ACACETIN] the IC50 (SK-MEL-2) was 0.4 to 26.8 µg/mL (≈ 1.41 to 94.3 µM), the IC50 (XF498) was 0.4 to 26.8 µg/mL (≈ 1.41 to 94.3 µM) and the IC50 (SK-OV-3) was 0.4 to 26.8 µg/mL (≈ 1.41 to 94.3 µM). For the same molecule, the IC50 (A549 [6]) was 0.4 to 26.8 µg/mL (≈ 1.41 to 94.3 µM) and the IC50 (HCT-15) was 0.4 to 26.8 µg/mL (≈ 1.41 to 94.3 µM).

In the case of `COc1ccc(-c2cc(=O)c3c(O)c(OC)c(OC)cc3o2)cc1OC`, the IC50 (MCF7 [15]) is reported as 10.3 to 91.9 µM and the IC50 (HeLa [16]) is reported as 8.1 to 63.2 µM.

For `CC(C)=CCC[C@H](C)[C@H]1C[C@H]2OO[C@@H]1C=C2C`, the IC50 (SK-MEL-2) was 0.2 to 5.43 µg/mL (≈ 0.846 to 23 µM), the IC50 (XF498) was 0.2 to 5.43 µg/mL (≈ 0.846 to 23 µM) and the IC50 (SK-OV-3) was 0.2 to 5.43 µg/mL (≈ 0.846 to 23 µM). For the same molecule, the IC50 (A549 [6]) was 0.2 to 5.43 µg/mL (≈ 0.846 to 23 µM) and the IC50 (HCT-15) was 0.2 to 5.43 µg/mL (≈ 0.846 to 23 µM).

Molecule `c1cc2c(cc1[C@H]1OC[C@H]3[C@@H]1CO[C@@H]3c1ccc3c(c1)OCO3)OCO2` [SESAMIN] has an IC50 [20] of 229 to 233 µM, an IC50 (HepG2) of 229 to 233 µM and an IC50 (SH-SY5Y) of 229 to 233 µM.

`O=C(/C=C/c1ccc(O)c(O)c1)O[C@@H]1C[C@](O)(C(=O)O)C[C@@H](O)[C@H]1O` [CHLOROGENIC ACID] showed an IC50 [7] of 0.52 µM.

`C[C@H]1[C@@H](O[C@H](C#N)c2ccc(Br)cc2)O[C@@H]2O[C@@]3(C)CC[C@H]4[C@H](C)CC[C@@H]1[C@@]24OO3` showed an IC50 (HT-29 [21]) of 0.01 to 0.49 µM, an IC50 (A549 [22]) of 0.01 to 0.49 µM and an IC50 (L1210) of 0.01 to 0.49 µM. It also gave an IC50 (P388 [23]) of 0.01 to 0.49 µM.

For `O=c1cc(-c2ccc(O)c(O)c2)oc2cc(O)cc(O)c12` [LUTEOLIN], the IC50 (HeLa [14]) was 16.3 µM.

With `C[C@H]1[C@@H](CCNC(=O)CC[C@H](NC(=O)CC[C@H]2O[C@@H]3O[C@@]4(C)CC[C@H]5[C@H](C)CC[C@@H]([C@H]2C)[C@@]35OO4)C(=O)NCC[C@H]2O[C@@H]3O[C@@]4(C)CC[C@H]5[C@H](C)CC[C@@H]([C@H]2C)[C@@]35OO4)O[C@@H]2O[C@@]3(C)CC[C@H]4[C@H](C)CC[C@@H]1[C@@]24OO3` the IC50 [24] was 6 µM.
